Laboratory results reported in publication PMC11740379, “Novel Enyne-Modified 1,4-Thiazepines as Epidermal Growth Factor Receptor Inhibitors: Anticancer and Computational Studies” (ACS Omega, 2024).
Where two headings read alike, the source gives them in different places.

Tests used:
EGFRT790M kinase = EGFRT790M kinase (Homo sapiens, UniProt P00533, T790M); assay: EGFR kinase inhibition assay (HTRF KinEASE-TK); type: biochemical
Procedure: The inhibitory effects of the target compounds on various EGFR kinases were assessed using a homogeneous time-resolved fluorescence (HTRF) assay, employing the HTRF KinEASE-TK kit (Cat# 62TK0PEC, Cisbio).[18] TZEP7 was tested at a range of diluted concentrations in the presence of 1% dimethyl sulfoxide (DMSO), with the kinase and compounds preincubated for 5 min. The reactions were initiated by adding ATP and TK-substrate-biotin, followed by a 60 min incubation at room temperature. The reactions were then stopped using a stop buffer containing 62.5 nM Strep-XL665 and TK antibody (Ab)-Cryptate. After a 1 h incubation of the plate, readings were taken on a microplate reader under standard HTRF conditions. IC50 values were calculated using GraphPad Prism 5.0 software. Each reaction was duplicated, and at least three independent determinations were conducted. The data were analyzed using GraphPad Prism.

Caspase-9 mRNA = assay: qRT-PCR of apoptosis-related mRNA; type: cell-based, human; conditions: 72 h, vs untreated control
Procedure: (§1) To measure the mRNA expression levels of apoptosis-related genes B-cell lymphoma 2 (Bcl-2), Bcl-2-associated X protein (Bax), Cyclin-dependent kinase 2 (CDK2), and Cyclin E, total mRNA was extracted from cells treated with compound 6f using Trizol reagent (Sigma). cDNA was synthesized from the total mRNA using the Qiagen cDNA synthesis kit according to the manufacturer’s instructions. The following primers, each at a concentration of 350 nM, were employed: Bcl-2; forward ([…]), reverse ([…]); Bax; forward ([…]), reverse ([…]); Caspase-8; forward ([…]), reverse ([…]); Caspase-9; forward (TGTCTACGGCACAGATGGA), reverse (GGACTCGTCTTCAGGGGA); EGFRWT: forward ([…]), reverse (CCTGTGCCAGGGACCTTAC−); EGFRT790 M forward ([…]), reverse ([…]); human GAPDH; forward ([…]), reverse (AGATGGTGATGGGCTTCCC). The PCR mix was prepared with 1× buffer containing 0.2 mM dNTPs, 1.6 mM MgCl2, […] of each primer set, cDNA, and 0.25 U Taq polymerase. The PCR conditions were as follows: an initial denaturation at 95 °C for 60 s, followed by 50 cycles of 95 °C for 15 s, 60 °C for 15 s, and 72 °C for 60 s. The cycle threshold (CT) for each replicate was normalized to the average CT of the endogenous control (GAPDH). The relative quantification of gene expression was calculated using the comparative CT method.[17]

Caspase-8 mRNA = assay: qRT-PCR of apoptosis-related mRNA; type: cell-based, human; conditions: 72 h, vs untreated control
Procedure: as §1

Bcl-2 mRNA = assay: qRT-PCR of apoptosis-related mRNA; type: cell-based, human; conditions: 72 h, vs untreated control
Procedure: as §1

Bax mRNA = assay: qRT-PCR of apoptosis-related mRNA; type: cell-based, human; conditions: 72 h, vs untreated control
Procedure: as §1

EGFRWT mRNA = assay: qRT-PCR of EGFR mRNA expression; type: cell-based, human; conditions: vs untreated control
Procedure: as §1

Chain of EGFRT790M kinase (P00533 25-1210 T790M): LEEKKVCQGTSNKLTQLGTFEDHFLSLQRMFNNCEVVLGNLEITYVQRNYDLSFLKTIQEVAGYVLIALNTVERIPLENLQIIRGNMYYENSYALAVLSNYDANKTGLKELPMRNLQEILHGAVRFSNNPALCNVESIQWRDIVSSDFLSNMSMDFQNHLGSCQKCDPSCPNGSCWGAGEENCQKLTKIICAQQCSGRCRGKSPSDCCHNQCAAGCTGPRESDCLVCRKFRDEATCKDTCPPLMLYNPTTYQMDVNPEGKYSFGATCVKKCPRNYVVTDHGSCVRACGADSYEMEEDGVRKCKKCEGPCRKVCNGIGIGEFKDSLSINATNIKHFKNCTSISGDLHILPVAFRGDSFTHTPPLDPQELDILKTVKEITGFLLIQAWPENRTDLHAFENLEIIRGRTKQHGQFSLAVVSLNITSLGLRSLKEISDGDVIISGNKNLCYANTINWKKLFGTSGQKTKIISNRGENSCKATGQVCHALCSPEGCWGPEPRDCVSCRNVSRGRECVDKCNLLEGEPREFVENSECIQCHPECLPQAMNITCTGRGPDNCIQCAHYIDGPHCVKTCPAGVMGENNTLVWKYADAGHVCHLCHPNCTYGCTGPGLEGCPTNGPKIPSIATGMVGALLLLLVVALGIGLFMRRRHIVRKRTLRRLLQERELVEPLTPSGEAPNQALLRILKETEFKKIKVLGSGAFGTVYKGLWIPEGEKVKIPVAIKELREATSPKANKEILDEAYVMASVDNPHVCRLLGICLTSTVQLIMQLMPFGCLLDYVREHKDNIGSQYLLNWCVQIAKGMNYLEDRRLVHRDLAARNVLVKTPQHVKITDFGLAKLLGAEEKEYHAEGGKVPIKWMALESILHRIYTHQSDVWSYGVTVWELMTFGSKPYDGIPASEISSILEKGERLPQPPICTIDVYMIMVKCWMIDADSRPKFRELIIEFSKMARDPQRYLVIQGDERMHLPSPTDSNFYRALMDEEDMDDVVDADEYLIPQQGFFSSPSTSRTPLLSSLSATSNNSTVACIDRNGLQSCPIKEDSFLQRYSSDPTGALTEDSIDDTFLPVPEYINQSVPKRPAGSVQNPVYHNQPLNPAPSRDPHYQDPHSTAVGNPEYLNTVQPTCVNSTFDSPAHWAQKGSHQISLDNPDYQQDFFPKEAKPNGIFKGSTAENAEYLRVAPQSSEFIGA

IC50 (EGFRT790M kinase): 280 nM | IC50 (EGFRT790M kinase; A549 cells): 220 nM | IC50 (EGFRT790M kinase; MCF-7 cells): 290 nM
Structure (SMILES): Cc1cc(C2=NCC(=CC#Cc3ccccc3)SC(c3ccc(Cl)cc3)=C2)ccc1F [TZEP7]
induction of Caspase-9 mRNA level (Caspase-9 mRNA; A549, IC50 concentration): 3.7 fold | induction of Caspase-9 mRNA level (Caspase-9 mRNA; MCF-7, IC50 concentration): 4.4 fold | induction of Caspase-9 mRNA level (Caspase-9 mRNA; PC-3, IC50 concentration): 3.6 fold | induction of Caspase-8 mRNA level (Caspase-8 mRNA; A549, IC50 concentration): 3.8 fold | induction of Caspase-8 mRNA level (Caspase-8 mRNA; MCF-7, IC50 concentration): 4.2 fold | induction of Caspase-8 mRNA level (Caspase-8 mRNA; PC-3, IC50 concentration): 5.4 fold | reduction of Bcl-2 mRNA level (Bcl-2 mRNA; A549, IC50 concentration): 3.3 fold | reduction of Bcl-2 mRNA level (Bcl-2 mRNA; MCF-7, IC50 concentration): 3.4 fold | reduction of Bcl-2 mRNA level (Bcl-2 mRNA; PC-3, IC50 concentration): 4.3 fold | increase of Bax mRNA level (Bax mRNA; A549, IC50 concentration): 4.8 fold | increase of Bax mRNA level (Bax mRNA; MCF-7, IC50 concentration): 4.1 fold | increase of Bax mRNA level (Bax mRNA; PC-3, IC50 concentration): 4.3 fold | downregulation of EGFRWT mRNA (EGFRWT mRNA; A549, 72 h): 4.6 fold | downregulation of EGFRWT mRNA (EGFRWT mRNA; MCF-7, 72 h): 3.8 fold | downregulation of EGFRWT mRNA (EGFRWT mRNA; PC-3, 72 h): 3.4 fold
